Two compounds from ChEMBL document CHEMBL5053557, “Discovery of Novel Dual-Target Inhibitor of Bromodomain-Containing Protein 4/Casein Kinase 2 Inducing Apoptosis and Autophagy-Associated Cell Death for Triple-Negative Breast Cancer Therapy” (J Med Chem, 2021) can be followed below.

Broadly, the IC50 is the concentration that gives 50% inhibition. Read a high IC50 as weaker potency.

Active and inactive are the calls of the source. No cut-off for these calls is given here.

The test system of series [1] is MDA-MB-231. In words: Antitumor activity against human MDA-MB-231 cells xenografted in po dosed nude BALB/c mouse assessed as tumor growth inhibition at 1:1 JQ-1 : compound ratio administered once daily for 19 days and measured every 3 days. The class given is functional, organism-based. The note with it: dose 50.0 mg/kg, time 19.0 day. (In general: Xenograft models place foreign cells or tissue in a host animal.)

Another series relates to Mus musculus. In words: Toxicity in nude BALB/c mouse xenografted with human MDA-MB-231 cells assessed as change in body weight at 50 mg/kg, po containing 1:1 compound : JQ-1 ratio administered once daily for 19 days and measured every 3 days. Type of series: organism-based. The note with it: in vivo, 456 h, time 19 day.
The test system of the next series is MDA-MB-468. As to the kind of experiment: Antiproliferative activity against human MDA-MB-468 cells incubated for 24 hrs by MTT assay. The class given is functional, cell-based. The note with it: MDA-MB-468, 24 h.
Series [2] deals with MDA-MB-231. In words: cells. Particulars: Homo sapiens, MDA-MB-231, 24 h.

As to `O=C(O)c1ccc2c(c1)nc(Nc1cccc(Cl)c1)c1ccncc12` [SILMITASERTIB], the outcome in the series on MDA-MB-231 [1] was Active. In addition, in the series on Mus musculus, the Activity result is on record as “Toxic”.
As for `COc1cc(OC)c2c(=O)[nH]c(-c3ccccc3OC)nc2c1`, the IC50 with MDA-MB-468 is 44.6 µM; in the series on MDA-MB-231 [2], over 50 µM.
